Some results are limits rather than exact numbers.

The nature of the assay: Compound was evaluated for the inhibition of Aminoimidazole carboxamide ribonucleotide formyl transferase (AICAR) with (6R) tetrahydrofolate as substrate.

The term IC50 denotes the concentration that gives 50% inhibition. Higher therefore signals a need for much substance. `Cc1c2cnc3nc(N)[nH]c(=O)c3c2c(C)n1C` gave an IC50 of more than 95 µM.

Values taken from BindingDB's records for doi:10.1021/jm00098a013 (Duquesne University, 1992).
